Assay results from patent publication US7326403B2, “Radioactive iodine-labeled compound” (FUJIFILM Corporation, priority 2003, dated 2008).

How the values were obtained:
[1] = system: SHIN-III (human ovary cancer cell); experiment: Uptake experiment in tumor cells (SHIN-III); assay type: cell-based; details: for uptake, percent dose converted to 100,000 cells: SHIN-III, 0.5 μCi, mean ± S.D.
Protocol: (§1) (i) LS180 (Human Colon Cancer Cell), SHIN-III (Human Ovary Cancer Cell) and U87MG (Glioma)
(§2) A commercially available medium, RPMI1640 (Nissui, 5.1 g), was dissolved in extra pure water (500 ml), autoclaved, and added with L-glutamine (0.15 g), Meylon (7% aqueous sodium hydrogencarbonate, a pharmaceutical preparation for injection, 14 ml) and FBS (55 ml) in a clean bench to prepare a medium. Cells were cultured in this medium.
(§3) Cells cryopreserved in a medium containing 10% DMSO were thawed, transferred to a 15-ml Falcon tube, and added with PBS to a volume of 5 ml. The mixture was centrifuged at 1300 rpm for 5 minutes. The supernatant was removed by suction, and the precipitates were suspended in PBS (5 ml). The suspension was centrifuged again at 1300 rpm for 5 minutes. The supernatant was removed by suction, and the precipitates were suspended in a medium (10 ml), inoculated in a 10-cm dish and left standing at 37° C. in a 5% CO2 incubator.
(§4) After 3 days, when the cells were proliferated to 80 to 90% of the 10-cm dish, the cells were subcultured in a 15-cm dish.
(§5) The 10-cm dish was taken out from the incubator, and the supernatant was removed by suction. The cells were washed three times with PBS, added with trypsin-EDTA (0.05% trypsin, 0.53 mM EDTA tetrasodium salt, 1 ml) and PBS (1 ml) and left standing in a CO2 incubator for 10 minutes. The dish was taken out from the incubator, and separation of the cells was observed. Then, the cells were transferred to a 15-ml Falcon tube. The cells were added with PBS to a volume of 5 ml and centrifuged at 1300 rpm for 5 minutes, and the supernatant was removed by suction. The precipitates were suspended in PBS (5 ml) and centrifuged at 1300 rpm for 5 minutes, and the supernatant was removed by suction. The precipitates were suspended in a medium (8 ml), and inoculated in a volume of 4 ml each to two of 15-cm dishes, to which the medium (16 ml) was added beforehand, and left standing at 37° C. in a 5% CO2 incubator.
(§6) Two days before the uptake experiment, the cells were inoculated on a 24-well plate ([…] of cell-suspended medium/well, 5 wells/plate per one type of cell). […] For the 4 wells to which the compound of the present invention was added, the cells were separated with 0.2 N NaOH and subjected to measurement of radioactivity. For the remaining 1 well, trypsin-EDTA was added to separate the cells, and the number of cells was counted by using a blood cell counter. Percent doses, which were converted to values for 100,000 cells based on the number of cells and radioactivity, and ratios relative to the normal cells (NIH3T3) were calculated. […]

[2] = system: SHIN-III human ovary cancer cells (tumor tissue vs muscle tissue); experiment: Distribution experiment in vivo, nude mice transplanted with SHIN-III; details: 18.5 kBq via caudal vein, 5, 10 and 30 minutes, FIG. 1
Protocol: 1.0×10^6 cells of SHIN-III human ovary cancer cells were subcutaneously inoculated in the femoral region of nude mice (male, 5-week old). […] After 5 minutes, 10 minutes and 30 minutes, the mice were sacrificed, and the weight and radioactivity of each organ were measured.

U87MG (glioma) = experiment: Uptake experiment in tumor cells (U87MG); assay type: cell-based; details: for uptake, percent dose converted to 100,000 cells: U87MG, 0.5 μCi, mean ± S.D.
Protocol: as §1, §2, §3, §4, §5, §6

[3] = system: LS180 (human colon cancer cell); experiment: Uptake experiment in tumor cells (LS180); assay type: cell-based; details: for uptake, percent dose converted to 100,000 cells: 0.5 μCi, mean ± S.D.
Protocol: as §1, §2, §3, §4, §5, §6

[4] = system: NIH3T3 (fibroblast, control); experiment: Uptake experiment in normal control cells (NIH3T3); assay type: cell-based; details: 0.5 μCi, mean ± S.D.
Protocol: (ii) NIH3T3 (Fibroblast, Control)
as §2, with “DMEM medium (Nissui)” for “medium, RPMI1640 (Nissui, 5.1 g),”
as §3
After 1 week, when the cells were proliferated to 80 to 90% of the 10-cm dish, the cells were subcultured in a 15-cm dish.
The 10-cm dish was taken out from the incubator, and the supernatant was removed by suction. The cells were washed three times with PBS, added with trypsin-EDTA (0.05% trypsin, 0.53 mM EDTA tetrasodium salt, 1 ml) and PBS (1 ml) and left standing in a CO2 incubator for 10 minutes. The dish was taken out from the incubator, and separation of the cells was observed. Then, the cells were transferred to a 15-ml Falcon tube. […]
as §6

CCn1c(=O)/c(=C2\Sc3ccccc3N2Cc2ccc([125I])cc2)s/c1=C\c1cccc[n+]1CC [the compound of the present invention]
uptake ratio relative to the normal cells (NIH3T3) ([1]; SHIN-III vs NIH3T3): about seven | uptake, percent dose converted to 100,000 cells ([1]; after 30 minutes): 6.26 ± 0.73 % dose/100000 cells | uptake, percent dose converted to 100,000 cells ([1]; after 1 hour): 11.7 ± 1.16 % dose/100000 cells | uptake, percent dose converted to 100,000 cells ([1]; after 3 hours): 25.2 ± 2.42 % dose/100000 cells | accumulation in the tumor tissue and muscle tissue [2]: accumulate in a higher concentration in the tumor tissue than in the muscle | uptake ratio relative to the normal cells (NIH3T3) (U87MG (glioma); U87MG vs NIH3T3): about 7 times | uptake, percent dose converted to 100,000 cells (U87MG (glioma); after 30 minutes): 3.19 ± 1.86 % dose/100000 cells | uptake, percent dose converted to 100,000 cells (U87MG (glioma); after 1 hour): 3.07 ± 0.09 % dose/100000 cells | uptake, percent dose converted to 100,000 cells (U87MG (glioma); after 3 hours): 5.32 ± 0.70 % dose/100000 cells | uptake, percent dose converted to 100,000 cells ([3]; LS180, after 30 minutes): 3.37 ± 0.31 % dose/100000 cells | uptake, percent dose converted to 100,000 cells ([3]; LS180, after 1 hour): 5.33 ± 0.43 % dose/100000 cells | uptake, percent dose converted to 100,000 cells ([3]; LS180, after 3 hours): 10.2 ± 0.97 % dose/100000 cells | uptake ratio relative to the normal cells (NIH3T3) ([3]; LS180 vs NIH3T3): about three | uptake, percent dose converted to 100,000 cells ([4]; after 30 minutes): 1.40 ± 0.03 % dose/100000 cells | uptake, percent dose converted to 100,000 cells ([4]; after 1 hour): 2.12 ± 0.14 % dose/100000 cells | uptake, percent dose converted to 100,000 cells ([4]; after 3 hours): 3.34 ± 0.18 % dose/100000 cells
